In the assay the test system is A498 complex spheroid viability. Briefly: Anticancer human tumor A498 cell line growth inhibition.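 On all read-outs here: spheroids exposed to agents for seven days before readout.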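 On viability, T/C: 100% = DMSO vehicle-treated spheroids.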 The settings on record: for viability, T/C: stronger effect = lower value. The method, boiled down:
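Drug combinations with the LSD1 inhibitor iadademstat tested on tumor cells co-cultured as spheroids with endothelial cells and mesenchymal stem cells. Concentrations descended in half-log increments from clinical Cmax or 10 microM.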

Setting [1] is: curve of first compound, second compound 0.1 µM.
Setting [2] is: curve of first compound, second compound 0.316 µM.
The mark [3] stands for this setting: curve of first compound, second compound 1 µM.
Where [4] appears, read: curve of first compound, second compound 3.16 µM.
Where [5] appears, read: curve of first compound, second compound 10 µM.
[6] abbreviates: second compound 0.1 µM, first compound 0.000316 µM.
The mark [7] stands for this setting: second compound 0.1 µM, first compound 0.001 µM.
Where [8] appears, read: second compound 0.1 µM, first compound 0.00316 µM.
[9] abbreviates: second compound 0.1 µM, first compound 0.01 µM.
The mark [10] stands for this setting: second compound 0.1 µM, first compound 0.0316 µM.
Where [11] appears, read: second compound 0.1 µM, first compound 0.1 µM.
Where [12] appears, read: second compound 0.316 µM, first compound 0.000316 µM.
Where [13] appears, read: second compound 0.316 µM, first compound 0.001 µM.
Setting [14] is: second compound 0.316 µM, first compound 0.00316 µM.
Setting [15] is: second compound 0.316 µM, first compound 0.01 µM.
Setting [16] is: second compound 0.316 µM, first compound 0.0316 µM.
[17] abbreviates: second compound 0.316 µM, first compound 0.1 µM.
The mark [18] stands for this setting: second compound 1 µM, first compound 0.000316 µM.
[19] abbreviates: second compound 1 µM, first compound 0.001 µM.
The mark [20] stands for this setting: second compound 1 µM, first compound 0.00316 µM.
Where [21] appears, read: second compound 1 µM, first compound 0.01 µM.
The mark [22] stands for this setting: second compound 1 µM, first compound 0.0316 µM.
Setting [23] is: second compound 1 µM, first compound 0.1 µM.
The mark [24] stands for this setting: second compound 3.16 µM, first compound 0.000316 µM.
The mark [25] stands for this setting: second compound 3.16 µM, first compound 0.001 µM.
The mark [26] stands for this setting: second compound 3.16 µM, first compound 0.00316 µM.
The mark [27] stands for this setting: second compound 3.16 µM, first compound 0.01 µM.
Setting [28] is: second compound 3.16 µM, first compound 0.0316 µM.
Setting [29] is: second compound 3.16 µM, first compound 0.1 µM.
The mark [30] stands for this setting: second compound 10 µM, first compound 0.000316 µM.
[31] abbreviates: second compound 10 µM, first compound 0.001 µM.
Where [32] appears, read: second compound 10 µM, first compound 0.00316 µM.
Setting [33] is: second compound 10 µM, first compound 0.01 µM.
Where [34] appears, read: second compound 10 µM, first compound 0.0316 µM.
The mark [35] stands for this setting: second compound 10 µM, first compound 0.1 µM.

Each structure is given as a SMILES string. “And” between values parts separate entries of the source, which are not always exact repeats. Equal entries are not always repeated.

This note sets out measurements from PubChem BioAssay AID1918947 (Molecular Pharmacology Branch, DTP, NCI, 2023).

For orientation: IC50 means the point on the concentration scale where inhibition reaches its midpoint. What is called viability, T/C is the ratio of treated to control.

On to `Cn1ncnc1C1c2n[nH]c(=O)c3cc(F)cc(c23)NC1c1ccc(F)cc1` (centres undefined) + NC1CCC(NC2CC2c2ccccc2)CC1, for which the half-inhibitory concentration (IC50) is above 0.1 µM under setting [1]; above 0.1 µM under setting [2]; above 0.1 µM under setting [3]; above 0.1 µM under setting [4]; above 0.1 µM under setting [5]. Moreover, the viability, T/C runs as follows: under setting [6], 84%; under setting [7], 88.1%; under setting [8], 82.7%; under setting [9], 87.4%; under setting [10], 85.1%; under setting [11], 85.3%. Further, the viability, T/C by setting is: under setting [12], 95.5%; under setting [13], 95.5%; under setting [14], 95%; under setting [15], 89%; under setting [16], 85.7%; under setting [17], 90.9%. Also, the viability, T/C is, setting by setting: under setting [18], 84.2%; under setting [19], 94.5%; under setting [20], 87%; under setting [21], 84.2%; under setting [22], 78.5%; under setting [23], 81.3%. Moreover, the viability, T/C under setting [24] was 83.8%; the viability, T/C under setting [25] was 85.3%; the viability, T/C under setting [26] was 85.3%; the viability, T/C under setting [27] was 78.5%; the viability, T/C under setting [28] was 79.6%; the viability, T/C under setting [29] was 74.9%. In addition, the viability, T/C was 77.2% under setting [30]; 76.8% under setting [31]; 78.2% under setting [32]; 74.9% under setting [33]; 75.8% under setting [34]; 65.3% under setting [35].

As to `CCc1c2c(nc3ccc(O)cc13)-c1cc3c(c(=O)n1C2)COC(=O)[C@]3(O)CC`, the viability, T/C by setting is: (compound 0.000949 µM) 42.1% and 37.3%; (compound 0.003 µM) 33% and 33.4%; (compound 0.00949 µM) 24.4% and 22.1%; (compound 0.03 µM) 1.45% and 0.7%; (compound 0.0949 µM) 0.15%; (compound 0.3 µM) 0.18% and 0.21%. Further, the IC50 (curve of compound) was below 0.000949 µM.

As for `CC1COCCN1c1cc(C2(S(C)(=N)=O)CC2)nc(-c2ccnc3[nH]ccc23)n1` (centres undefined), the viability, T/C was 98.7% and 99.7% (compound 0.0316 µM); 98.2% and 97.2% (compound 0.1 µM); 69.6% and 68.1% (compound 0.316 µM); 34.2% and 28.7% (compound 1 µM); 19% and 19.6% (compound 3.16 µM); 13.1% and 12% (compound 10 µM). Besides, where the note is “curve of compound”, the half-inhibitory concentration (IC50) was 0.605 µM and 0.543 µM.

In the case of `CC1COCCN1c1cc(C2(S(C)(=N)=O)CC2)nc(-c2ccnc3[nH]ccc23)n1` (centres undefined) + NC1CC1c1ccc(-c2cccc(O)c2)cc1, the half-inhibitory concentration (IC50) by setting is: under setting [1], 0.409 µM; under setting [2], 0.509 µM; under setting [3], 0.552 µM; under setting [4], 0.503 µM; under setting [5], 0.539 µM. In addition, the viability, T/C runs as follows: under setting [10], 92%; under setting [11], 85.2%; (second compound 0.1 µM, first compound 0.316 µM) 55.2%; (second compound 0.1 µM, first compound 1 µM) 28%; (second compound 0.1 µM, first compound 3.16 µM) 16.1%; (second compound 0.1 µM, first compound 10 µM) 11.5%. For the same compound, the viability, T/C under setting [16] was 97.8%; the viability, T/C under setting [17] was 96.8%; the viability, T/C (second compound 0.316 µM, first compound 0.316 µM) is 68.4%; the viability, T/C (second compound 0.316 µM, first compound 1 µM) was 23.9%; the viability, T/C (second compound 0.316 µM, first compound 3.16 µM) was 16.7%; the viability, T/C (second compound 0.316 µM, first compound 10 µM) is 15.6%. Further, the viability, T/C by setting is: under setting [22], 86.7%; under setting [23], 94%; (second compound 1 µM, first compound 0.316 µM) 69.9%; (second compound 1 µM, first compound 1 µM) 28%; (second compound 1 µM, first compound 3.16 µM) 15.1%; (second compound 1 µM, first compound 10 µM) 10.6%. The viability, T/C runs as follows: under setting [28], 85.2%; under setting [29], 87.9%; (second compound 3.16 µM, first compound 0.316 µM) 63.9%; (second compound 3.16 µM, first compound 1 µM) 28.1%; (second compound 3.16 µM, first compound 3.16 µM) 16.8%; (second compound 3.16 µM, first compound 10 µM) 11.2%. Besides, the viability, T/C is 89.7% under setting [34]; 84.8% under setting [35]; 63% (second compound 10 µM, first compound 0.316 µM); 34% (second compound 10 µM, first compound 1 µM); 17.8% (second compound 10 µM, first compound 3.16 µM); 10.1% (second compound 10 µM, first compound 10 µM).

As to `CC(C)CC(NC(=O)C(Cc1ccccc1)NC(=O)c1cnccn1)B(O)O` (centres undefined) + NC1CCC(NC2CC2c2ccccc2)CC1, the IC50 runs as follows: under setting [1], 0.000966 µM; under setting [2], 0.000876 µM; under setting [3], 0.000765 µM; under setting [4], 0.000635 µM; under setting [5], 0.000527 µM. Besides, the viability, T/C was 82.1% under setting [6]; 49% under setting [7]; 3.94% under setting [8]; 1.24% under setting [9]; 0.46% under setting [10]; 0.48% under setting [11]. The viability, T/C was 90.5% under setting [12]; 44.7% under setting [13]; 3.08% under setting [14]; 1.09% under setting [15]; 0.41% under setting [16]; 0.97% under setting [17]. Besides, the viability, T/C runs as follows: under setting [18], 84.5%; under setting [19], 39.5%; under setting [20], 2.52%; under setting [21], 0.84%; under setting [22], 1.13%; under setting [23], 0.61%. The viability, T/C by setting is: under setting [24], 78.5%; under setting [25], 31.5%; under setting [26], 1.91%; under setting [27], 0.54%; under setting [28], 0.31%; under setting [29], 0.35%. Also, the viability, T/C was 67.6% under setting [30]; 28% under setting [31]; 1.67% under setting [32]; 0.4% under setting [33]; 0.26% under setting [34]; 0.41% under setting [35].
